Measurements reported in patent US11286263B2, “Macrocyclic fluorine substituted indole derivatives” (The Broad Institute, Inc., priority 2017, dated 2022).
Several values for one entry are separate records, joined by “and”; a condition that tells them apart may be missing. Identical values can stand only once. Like-named read-outs stand apart in the source and are kept apart here.

Assays:
[1] = amine bond, Cs2CO3
[2] = system: A2780; assay: Antiproliferation assay A2780 (Assay 7); assay type: cell-based; conditions: A2780 cells, CellTiter-Glo, single determinations, read-out: IC50 Antiproli A2780
Method: (§1) Assessment of the Anti-Proliferative Effect of Compounds in Different Cell Lines
(§2) The impact of compounds on the proliferation of different cell lines was assessed using the CellTiter-Glo® Luminescent Cell Viability reagent from Promega (G7573).
(§3) In parallel, cells were plated in a reference (day 0) plate for time zero determination.
(§4) Rim wells were excluded. The cells were incubated for 72 h hours in a humidified incubator at 37° C. The day 0 plate was measured by adding 30 μL/well of CTG solution (CellTiter-Glo® Luminescent Cell Viability reagent, Promega G7573) to time zero wells in the reference plate followed by a 10 minutes incubation and luminescence reading at 0.1 ms. using the PHERAstar FS microplate reader (BMG Labtech).
(§5) After 72 h incubation, the treated plates were measured in the same way as the day 0 plate mentioned above.

[3] = system: SUDHL10; assay: Induction of cytotoxicity, SUDHL10 (Assay 6); conditions: read-out: IC50 Cytotox SUDHL10 [M] (median), SUDHL10 cells, 5 h, CellTiter-Glo
[4] = system: SUDHL5; assay: Antiproliferation assay SUDHL5 (Assay 7); assay type: cell-based; conditions: SUDHL5 cells, CellTiter-Glo, median, read-out: IC50 Antiproli SUDHL5 [M] (median)
Method: as §1, §2, §3, §4, §5

[5] = system: SUDHL10; assay: Antiproliferation assay SUDHL10 (Assay 7); assay type: cell-based; conditions: Homo sapiens, SU-DHL10; SUDHL10 cells, 72 h, CellTiter-Glo; median; read-out: IC50 Antiproli SUDHL10 [M] (median)
Method: as §1, §2, §3, §4, §5

[6] = system: SUDHL5; assay: Induction of cytotoxicity, SUDHL5 (Assay 6); conditions: read-out: IC50 Cytotox SUDHL5 [M] (median), SUDHL5 cells, 5 h, CellTiter-Glo
Method: In principle, compounds that induce apoptosis will concomitantly induce cell cytotoxicity. Therefore, cytotoxicity assays were run in parallel in SUDHL5 and SUDHL10 cells.
The different cell lines were plated in culture medium (RPMI 1640 [GIBCO #22400-089] supplemented with 10% Fetal Bovine Serum) at a density of 3,300 cells in 30 μl/well in a sterile, solid black, flat bottom, polystyrene, TC-treated 384-well microplate (Corning #3571) using Multidrop Combi Reagent Dispenser. As a control, medium without cells was also added to the plate. Cells were incubated in a humidified incubator at 37° C. overnight. On the next day, the cells were treated with compounds (stock solution, 10 mM in DMSO) using the HP D300 Digital Dispenser in a concentration range of 3.3×10e-5 M (33 μM) to 5×10e-9 M (5 nM) in a single-dot curve with at least 16 dilutions and a DMSO concentration of 0.33%. Rim wells were excluded. The cells were incubated for 5 h hours in a humidified incubator at 37° C. After this incubation, 30 μl of CellTiter-Glo® Luminescent Cell Viability reagent (Promega, G7573) was added to each well using the Multidrop Combi Reagent Dispenser, followed by 15 min incubation on a shaker at room temperature. Finally, luminescence was read at 0.1 ms, with a gain of 3000 using the PHERAstar FS microplate reader (BMG Labtech).
The Bella DRC Master Sheet was used to calculate IC50s, with fixed CI=0 and C0=1.

[7] = system: AMO-1; assay: Antiproliferation assay AMO-1 (Assay 7); assay type: cell-based; conditions: AMO-1 cells, CellTiter-Glo, single determinations, read-out: IC50 Antiproli AMO-1
Method: as §1, §2, §3, §4, §5

[8] = system: SUDHL10; assay: Induction of caspase-3/7 activity, SUDHL10 (Assay 4); assay type: cell-based; conditions: SUDHL10 cells
Method: (§6) Induction of Caspase-3/7 Activity upon Treatment of Cells with Selected Compounds
(§7) The BH3-domain of MCL-1 sequesters pro-apoptotic proteins, thereby inhibiting apoptosis. In contrast, MCL-1 inhibitors are expected to antagonize this effect leading to an increase in apoptosis, which can be determined by measuring the activity of caspase-3/7.
(§8) The activity of caspase-3/7 was determined in DLBCL (Diffuse large B-cell lymphoma) cell lines (SUDHL5 and SUDHL10) upon treatment with different compounds, using the Caspase-Glo® 3/7 reagent from Promega (G8092).
(§9) Rim wells were excluded. The cells were incubated for 3 h hours in a humidified incubator at 37° C.
(§10) For the evaluation of the results, the background measured with “medium-only” was subtracted from all other values. […] The Bella DRC Master Sheet was used to calculate EC50s, with fixed C0=1 and Cl=plateau/max induction for the reference compound.

[9] = system: SUDHL5; assay: Induction of caspase-3/7 activity, SUDHL5 (Assay 4); assay type: cell-based; conditions: Homo sapiens, SU-DHL-5, 3 h, SUDHL5 cells, Caspase-Glo 3/7, median
Method: as §6, §7, §8, §9, §10

[10] = target: MCL-1 (Homo sapiens (Human), UniProt Q07820, K194A/K197A/R201A); assay: Protein-protein interaction assay MCL-1/Noxa BH3 peptide (MCL-1 assay), TR-FRET; assay type: binding; conditions: MCL-1/Noxa BH3 peptide TR-FRET; median
MCL-1, sequence (Q07820 whole entry K194A/K197A/R201A, looked up): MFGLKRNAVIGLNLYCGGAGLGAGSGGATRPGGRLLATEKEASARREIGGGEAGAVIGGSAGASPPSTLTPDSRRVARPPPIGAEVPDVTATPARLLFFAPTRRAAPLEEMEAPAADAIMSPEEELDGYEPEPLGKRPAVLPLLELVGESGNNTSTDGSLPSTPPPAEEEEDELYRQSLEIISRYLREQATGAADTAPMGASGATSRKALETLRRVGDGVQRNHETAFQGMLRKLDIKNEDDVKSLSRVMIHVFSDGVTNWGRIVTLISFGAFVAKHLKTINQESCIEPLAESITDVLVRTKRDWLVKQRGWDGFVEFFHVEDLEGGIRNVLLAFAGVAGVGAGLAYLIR
Method: Protein-Protein Interaction Assay: MCL-1/Noxa BH3 Peptide (MCL-1 Assay)
The dose-dependent inhibition by the compounds described in this invention of the interaction between MCL-1 and the BH3 domain of Noxa (both human) was determined using a steady state binding competition assay with time-resolved fluorescence energy transfer (TR-FRET) readout. For that purpose MCL-1 (amino acids 173-321, N-terminal fused to Maltose Binding Protein (MBP) SEQ ID 1)) and a synthetic Noxa BH3-derived peptide of sequence Biotin-PEG2-PEG2-PAELEVE-Nva-ATQLRRFGDKLNFRQKLL-amide (SEQ ID 2) served as protein receptor and tracer ligand respectively. The MBP-MCL-1 was purchased from Beryllium (Bedford, Mass., USA). The expression and purification of this protein construct has been described elsewhere (DOI:10.1371/journal.pone.0125010). The Noxa BH3-derived peptide can be obtained from e.g. Biosyntan (Berlin, Germany).
In the assay 11 different concentrations of each compound (0.1 nM, 0.33 nM, 1.1 nM, 3.8 nM, 13 nM, 44 nM, 0.15 μM, 0.51 μM, 1.7 μM, 5.9 μM and 20 μM) were typically measured as duplicates in the same microtiter plate. For that, 100-fold concentrated DMSO solutions were prepared by serial dilutions (1:3.4) of a 2 mM stock solution in a clear, 384-well microtiter plate (Greiner Bio-One, Frickenhausen, Germany). From there, 50 nl were transferred in a dark test plate (Greiner Bio-One, Frickenhausen, Germany). The assay was initiated by addition of 2 μl of a 2,5-fold concentrated MBP-MCL-1 solution (usually for a 1 nM end concentration in 5 μl reaction volume) in aqueous assay buffer [50 mM Tris/HCl pH 7, 100 mM sodium chloride (NaCl), 50 mM potassium fluoride (KF), 0.005% Tween-20, 2 mM DTT, 0.1% bovine gamma globulin (BGG)] to the compounds in the assay plate. This was followed by a 10-minute incubation step at 22° C. for pre-equilibration of the putative complex between MBP-MCL-1 and the compounds. After that, 3 μl of a 1.67-fold concentrated solution (in assay buffer) consisting of Noxa BH3-derived peptide (1 nM end concentration) and TR-FRET detection reagents [1.67 nM anti-MBP-Eu cryptate and 1.67 nM streptavidin-XL665 (both from Cisbio Bioassays, Codolet, France)], were added.
The mixture was incubated in the dark for one hour at 22° C. and then overnight at 4° C. The formation of MCL-1/Noxa complexes was determined by measuring the resonance energy transfer of the anti-MBP-Eu-cryptate antibody to the streptavidin-XL665 present in the reaction. For that purpose, the fluorescence emission at 620 nm and 665 nm after excitation at 330-350 nm was measured in a TR-FRET measuring instrument, for instance a Rubystar or a Pherastar (both from BMG Lab Technologies, Offenburg, Germany) or a Viewlux (Perkin-Elmer). The ratio of the emission at 665 nm and at 622 nm was used as indicator of the amount of MCL-1/NOXA complexes present.
The resulting data (ratio) were normalized, taking 0% inhibition as the mean value of control measurements (usually 32 data points) where all reagents were included. In this case 50 nl DMSO were used instead of compounds. A 100% inhibition corresponded to the mean value of control measurements (usually 32 data points) where all reagents except MCL-1 were included. IC50 values were determined by regression analysis based on a 4 parameter equation (minimum, maximum, IC50, Hill; Y=Max+(Min−Max)/(1+(X/IC50)^Hill) using the Screener Software (Genedata).

[11] = system: HMC-1-8; assay: Antiproliferation assay HMC-1-8 (Assay 7); assay type: cell-based; conditions: HMC-1-8 cells, 72 h, CellTiter-Glo; single determinations; read-out: IC50 Antiproli HMC-1-8
Method: as §1, §2, §3, §4, §5

[12] = system: MV-4-11; assay: Antiproliferation assay MV-4-11 (Assay 7); assay type: cell-based; conditions: MV-4-11 cells, CellTiter-Glo, single determinations, read-out: IC50 Antiproli MV-4-11
Method: as §1, §2, §3, §4, §5

[13] = system: SK-BR-3; assay: Antiproliferation assay SK-BR-3 (Assay 7); assay type: cell-based; conditions: Homo sapiens, SK-BR-3, 72 h, SK-BR-3 cells, CellTiter-Glo, single determinations, read-out: IC50 Antiproli SK-BR-3
Method: as §1, §2, §3, §4, §5

[14] = Homo sapiens, SU-DHL10, 3 h, Caspase-Glo 3/7, median

SMILES: CCOC(=O)c1c(CCCOc2cccc3ccccc23)c2ccc(F)c3c2n1CCCCNCc1nn(C)c(C)c1-3
- ring closure, yield of all isomers ([1]; from CCOC(=O)c1c(CCCOc2cccc3ccccc23)c2ccc(F)c(-c3c(CBr)nn(C)c3C)c2n1CCCCN, DMF, 10.0 mM, 65.0 °C, 17.0 h): 48.6%

SMILES: CCc1c2c(nn1C)COCCCCn1c(C(=O)O)c(CCCOc3cccc4cc(F)ccc34)c3ccc(F)c-2c31 (racemic) [Example 21, (rac)-12-ethyl-13-fluoro-1-(3-((6-fluoronaphthalen-1-yl)oxy)propyl)-11-methyl-4,5,6,7,9,11-hexahydropyrazolo[4′,3′:9,10][1]oxa[6]azacycloundecino[8,7,6-hi]indole-2-carboxylic acid]
- IC50 ([2]; Homo sapiens, A2780, 72 h): 3.47 µM
- IC50 ([3]; Homo sapiens, SU-DHL10, 5 h): 8.5e-07 M
- IC50 ([4]; Homo sapiens, SU-DHL-5, 72 h): 7.3e-07 M
- IC50 [5]: 6.3e-07 M
- IC50 ([6]; Homo sapiens, SU-DHL-5, 5 h): 5.1e-07 M
- IC50 ([7]; 72 h): 0.942 µM and 1.12 µM
- IC50 ([7]; Homo sapiens, AMO1, 72 h): 1.22 µM
- EC50 [8, 14]: 0.9 µM
- EC50 [9]: 0.35 µM
- IC50 [10]: 0.00086 µM

SMILES: CCc1nn(C)c2c1-c1c(F)ccc3c(CCCOc4cccc5cc(F)ccc45)c(C(=O)O)n(c13)CCCCOC2 (racemic) [Example 38, (rac)-12-ethyl-13-fluoro-1-(3-((6-fluoronaphthalen-1-yl)oxy)propyl)-10-methyl-4,5,6,7,9,10-hexahydropyrazolo[4′,3′:9,10][1]oxa[6]azacycloundecino[8,7,6-hi]indole-2-carboxylic acid]
- IC50 ([3]; Homo sapiens, SU-DHL10, 5 h): 1.4e-06 M
- IC50 ([4]; Homo sapiens, SU-DHL-5, 72 h): 9.3e-07 M
- IC50 [5]: 1e-06 M
- IC50 ([6]; Homo sapiens, SU-DHL-5, 5 h): 1e-06 M
- IC50 ([7]; 72 h): 2.46 µM and 1.61 µM
- IC50 ([7]; Homo sapiens, AMO1, 72 h): 2.35 µM
- EC50 [8, 14]: 2 µM
- EC50 [9]: 0.87 µM
- IC50 [10]: 0.0011 µM

SMILES: CCc1c2c(nn1C)COCCCCn1c(C(=O)O)c(CCCOc3cccc4cc(F)ccc34)c3ccc(F)c-2c31 (single isomer, unassigned; enantiomer 2) [Example 25, 3-ethyl-4-fluoro-7-{3-[(6-fluoronaphthalen-1-yl)oxy]propyl}-2-methyl-2,10,11,12,13,15-hexahydropyrazolo[4′,3′:9,10][1,6]oxazacycloundecino[8,7,6-hi]indole-8-carboxylic acid (enantiomer 2)]
- IC50 [3]: 2.2e-05 M
- IC50 ([4]; 72 h): 8.1e-06 M
- IC50 [6]: 1.2e-05 M
- IC50 ([7]; 72 h): 32.8 µM
- EC50 ([8]; 3 h, Caspase-Glo 3/7, median): > 33 µM
- IC50 [11]: 20.9 µM
- IC50 [10]: 0.013 µM

SMILES: CCOC(=O)c1c(CCCO)c2ccc(F)c3c2n1CCCCN(C)Cc1nn(C)c(CC)c1-3
- ring closure, yield of all isomers ([1]; from CCOC(=O)c1c(CCCO[Si](C)(C)C(C)(C)C)c2ccc(F)c(-c3c(CBr)nn(C)c3CC)c2n1CCCCN(C)C(=O)OC(C)(C)C, acetonitrile, 44.5 mM, 60.0 °C, 6.0 h, 2 steps): 46%

SMILES: CCc1c2c(nn1C)COCCCCn1c(C(=O)O)c(CCCOc3cccc4ccccc34)c3ccc(F)c-2c31 (racemic) [Example 6, (rac)-3-ethyl-4-fluoro-2-methyl-7-[3-(naphthalen-1-yloxy)propyl]-2,10,11,12,13,15-hexahydro-pyrazolo[4′,3′:9,10][1,6]oxazacycloundecino[8,7,6-hi]indole-8-carboxylic acid]
- IC50 ([2]; 72 h, listed as 06): 10.6 µM and 13.1 µM
- IC50 ([2]; Homo sapiens, A2780, 72 h): 14.5 µM
- IC50 ([12]; Homo sapiens, MV4-11, 72 h): 3.83 µM
- IC50 ([12]; 72 h, listed as 06): 2.82 µM and 2.76 µM and 2.35 µM
- IC50 ([3]; Homo sapiens, SU-DHL10, 5 h): 1.3e-06 M
- IC50 ([4]; Homo sapiens, SU-DHL-5, 72 h): 9.8e-07 M
- IC50 ([6]; Homo sapiens, SU-DHL-5, 5 h): 6.4e-07 M
- IC50 ([7]; Homo sapiens, AMO1, 72 h): 2.63 µM
- EC50 [8, 14]: 1.1 µM
- EC50 [9]: 0.4 µM
- IC50 [10]: 0.0011 µM
- IC50 [13]: 7.29 µM

SMILES: Cc1c2c(nn1C)COCCCCn1c(C(=O)O)c(CCCOc3cccc4cc(F)ccc34)c3ccc(F)c-2c31 (racemic) [Example 12, (rac)-13-fluoro-1-(3-((6-fluoronaphthalen-1-yl)oxy)propyl)-11,12-dimethyl-4,5,6,7,9,11-hexahydropyrazolo[4′,3′:9,10][1]oxa[6]azacycloundecino[8,7,6-hi]indole-2-carboxylic acid]
- IC50 ([2]; Homo sapiens, A2780, 72 h): 4.68 µM
- IC50 ([3]; Homo sapiens, SU-DHL10, 5 h): 8.2e-07 M
- IC50 ([4]; Homo sapiens, SU-DHL-5, 72 h): 6.5e-07 M
- IC50 [5]: 7.2e-07 M
- IC50 ([6]; Homo sapiens, SU-DHL-5, 5 h): 6e-07 M
- IC50 ([7]; 72 h): 0.869 µM
- IC50 ([7]; Homo sapiens, AMO1, 72 h): 1.51 µM
- EC50 [8, 14]: 0.8 µM
- EC50 [9]: 0.48 µM
- IC50 [10]: 0.00085 µM
